Drawing on US20060241078A1, “Pharmaceutical compositions comprising a contraceptive agent in solution and a teratogen” (priority 2005, published 2006), this text covers Solubility for three compounds.

This data set in a line: Solubility of estrogen and progestin in solubilizing agents and oils (visual, dropwise solvent addition).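 Note: about 10 mg estrogen or progestin titrated with solubilizing agent or oil, added dropwise with shaking until fully dissolved, completion judged by eye under light.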
The mark [1] stands for this setting: solvent/oil: MAPEG 400 DO PEG ester.
The mark [2] stands for this setting: solvent/oil: Supernatant of soybean oil containing isotretinoin (40 mg isotretinoin particles in 1 gram of oil, particles removed by centrifugation).

For `C#C[C@]1(OC(C)=O)CC[C@H]2[C@@H]3CCC4=CC(=O)CC[C@@H]4[C@H]3CC[C@@]21C` [Norethindrone Acetate, norethindrone acetate], the Solubility (solvent/oil: Crodamol EO) is 14.42 mg drug/g solvent or oil; the Solubility (solvent/oil: Crodamol GTCC-PN) is listed as 17.94 mg drug/g solvent or oil; the Solubility (solvent/oil: Crovol A40) is recorded as 15.85 mg drug/g solvent or oil; the Solubility (solvent/oil: Ethanol) is 49.46 mg drug/g solvent or oil; the Solubility under setting [1] was 9.34 mg drug/g solvent or oil; the Solubility (solvent/oil: Myvacet 9-45K) was 14.47 mg drug/g solvent or oil. The Solubility reads like this: (solvent/oil: Soybean oil) 6.41 mg drug/g solvent or oil; under setting [2], 3.92 mg drug/g solvent or oil.

Take `C#C[C@]1(O)CC[C@H]2[C@@H]3CCc4cc(O)ccc4[C@H]3CC[C@@]21C` [Ethinyl estradiol, ethinyl estradiol]: the Solubility is, setting by setting: (solvent/oil: Crodamol EO) 12.94 mg drug/g solvent or oil; (solvent/oil: Crodamol GTCC-PN) 12.03 mg drug/g solvent or oil; (solvent/oil: Crovol A40) 21.37 mg drug/g solvent or oil; (solvent/oil: Ethanol) 206 mg drug/g solvent or oil; under setting [1], 12.08 mg drug/g solvent or oil; (solvent/oil: Myvacet 9-45K) 18.08 mg drug/g solvent or oil. Moreover, the Solubility is, setting by setting: (solvent/oil: Soybean oil) 5.32 mg drug/g solvent or oil; under setting [2], 2.89 mg drug/g solvent or oil.

On to `C#C[C@]1(OC(C)=O)CC[C@H]2[C@@H]3CCC4=CC(=NO)CC[C@@H]4[C@H]3CC[C@@]21CC` (mixture of isomers) [Norgestimate, norgestimate], for which the Solubility is, setting by setting: (solvent/oil: Crodamol EO) 2.6 mg drug/g solvent or oil; (solvent/oil: Crodamol GTCC-PN) 3.4 mg drug/g solvent or oil; (solvent/oil: Crovol A40) 6.7 mg drug/g solvent or oil; (solvent/oil: Ethanol) 20.5 mg drug/g solvent or oil; under setting [1], 9.5 mg drug/g solvent or oil; (solvent/oil: Myvacet 9-45K) 4.3 mg drug/g solvent or oil. For the same compound, the Solubility is recorded as 1.9 mg drug/g solvent or oil (solvent/oil: Soybean oil) and 0.802 mg drug/g solvent or oil under setting [2].
